Assay results published in patent US8097607B2, “Low dose rifalazil compositions” (priority 2002, dated 2012).

Experiments:
[1] = test system: mycobacterium species; details: 1 to 100 mg once or twice weekly; cited from earlier work
[2] = cited from earlier work
[3] = Clinical trial: pharmacokinetics of rifalazil in plasma after single oral doses; details: for AUC / CL/F / Cmax / half-life: male, human, in vivo, po; for half-life / K10 / K12 / K21 / V1/F / Vdβ/F: males

**Q.** With CO[C@H]1/C=C/O[C@@]2(C)Oc3c(C)c(O)c4c(=O)c(c5oc6cc(N7CCN(CC(C)C)CC7)cc(O)c6nc-5c4c3C2=O)NC(=O)/C(C)=C\C=C\[C@H](C)[C@H](O)[C@@H](C)[C@@H](O)[C@@H](C)[C@H](OC(C)=O)[C@@H]1C [rifalazil, Rifalazil] as the molecule, how does the “efficacy against mycobacterium species” value [1] read?
**A.** efficacious

**Q.** And the “incidence of adverse reactions (headaches, fevers, flu-like symptoms)” value ([2]; 1 to 100 mg once or twice weekly)?
**A.** reduced, but did not eliminate

**Q.** What about the adverse reactions ([2]; clinical trials, daily administration, 10 mg per day to 10 g per day) of the same molecule?
**A.** many adverse reactions occurred

**Q.** And the AUC ([3]; 2.5 mg)?
**A.** 185 ng·h/mL

**Q.** And the CL/F ([3]; 2.5 mg)?
**A.** 3 mL/min/kg

**Q.** And the Cmax ([3]; 2.5 mg)?
**A.** 7.9 ng/mL

**Q.** And the half-life ([3]; 2.5 mg, Absorption t½, single 2.5 mg oral dose)?
**A.** 0.67 h

**Q.** And the half-life ([3]; 2.5 mg, Distribution t½, single 2.5 mg oral dose)?
**A.** 7.3 h

**Q.** What about the half-life ([3]; 2.5 mg, Elimination t½, single 2.5 mg oral dose) of the same molecule?
**A.** 139 h

**Q.** What about the AUC ([3]; 50 mg) of the same molecule?
**A.** 1350 ng·h/mL

**Q.** And the CL/F ([3]; 50 mg)?
**A.** 8.17 mL/min/kg

**Q.** What about the Cmax ([3]; 50 mg) of the same molecule?
**A.** 57.3 ng/mL

**Q.** And the half-life ([3]; 50 mg, Absorption t½, single 50 mg oral dose)?
**A.** 0.5 h

**Q.** What about the half-life ([3]; 50 mg, Distribution t½, single 50 mg oral dose) of the same molecule?
**A.** 11.6 h

**Q.** And the half-life ([3]; 50 mg, Elimination t½, single 50 mg oral dose)?
**A.** 116 h

**Q.** What about the K10 ([3]; single 2.5 mg oral dose) of the same molecule?
**A.** 0.045 h⁻¹

**Q.** And the K12 ([3]; single 2.5 mg oral dose)?
**A.** 0.044 h⁻¹

**Q.** And the K21 ([3]; single 2.5 mg oral dose)?
**A.** 0.011 h⁻¹

**Q.** And the V1/F ([3]; single 2.5 mg oral dose)?
**A.** 4.08 L/kg

**Q.** And the Vdβ/F ([3]; single 2.5 mg oral dose)?
**A.** 36.0 L/kg

**Q.** And the K10 ([3]; single 50 mg oral dose)?
**A.** 0.039 h⁻¹

**Q.** And the K12 ([3]; single 50 mg oral dose)?
**A.** 0.018 h⁻¹

**Q.** And the K21 ([3]; single 50 mg oral dose)?
**A.** 0.009 h⁻¹

**Q.** What about the V1/F ([3]; single 50 mg oral dose) of the same molecule?
**A.** 12.7 L/kg

**Q.** What about the Vdβ/F ([3]; single 50 mg oral dose) of the same molecule?
**A.** 82.4 L/kg
